Test results taken from patent US10238619B1, “Composition and method of using the same” (priority 2017, dated 2019).

What was measured:
[1] = tested on: persistent (biofilm) form of Borrelia burgdorferi; assay: effect on biofilm-like colonies, crystal violet staining; format: cell-based, Borrelia burgdorferi B31; details: for efficacy against biofilm compared with combinations (Mix 1 and Mix 2): individual ingredient 0.075 mg/ml; for susceptibility of biofilm: 0.3 mg/ml, 72 hours
Description: (§1) Two Borrelia species, namely, Borrelia burgdorferi and Borrelia garinii were tested in this study. Low passage isolates of the B31 strain of B. burgdorferi and CIP103362 strain of B. garinii were obtained from the American Type Culture Collection (Manassas, Va.). The stocks of both species were cultured in commonly used conditions, i.e. medium such as Barbour-Stoner-Kelly H (BSK-H) supplemented with 6% rabbit serum (Sigma, St Louis, Mo.) without antibiotics at 33° C. with 5% CO2, in sterile screw-cap 15 mL polypropylene tubes with or without gentile shaking depends on type of experiment. B31 strain is an isolate from Ixodes dammini whereas CIP103362 strain is an isolate from Ixodes ricinus. Both strains are well known human pathogenic factors of Lyme disease. So far, Borrelia burgdorferi has been found in ticks from North America and Eurasia, while Borrelia garinii only in ticks in Eurasia.
(§2) The strains of B. burgdorferi and B. garinii were prepared for testing as described in the art (Sapi et al., 2011). Briefly, the strains were activated from original cryobank vials and inoculated into 10 mL BSK-H compete medium, and maintained at 33° C. For generation of homogeneous cultures of B. burgdorferi or B. garinii, bacterial cells were inoculated and maintained in a shaking incubator at 33° C. and 250 rpm, where there is no biofilm formation (Sapi et al., 2011; supported by own observation). For generation of biofilm-like colonies of B. burgdorferi or B. garinii, bacterial cells were inoculated in four-well chambers (BD Biosciences, Sparks, Md.) coated with rat-tail collagen type I and incubated for 1 week without shaking.
(§3) Evaluation of test compounds/mixtures on bacterial biofilm. Qualitative effect of the individual test compounds and their mixtures against biofilm-like colonies of B. burgdorferi and B. garinii was evaluated using commonly used and well accepted crystal violet (CV) staining method, according to protocol provided by Sapi et al. Briefly, 1×10^7 bacterial cells/mL from homogeneous cultures of spirochetes were grown on extracellular matrix proteins (i.e., collagen type I) coated four-well chambers and incubated for 1 week.
(§4) After the 1 week of incubation, biofilm-like colonies were treated with various compounds/mixtures. Control wells were treated with ethanol (i.e., 0.075-0.3 mg/ml) alone. For doxycycline, as a positive control, the final used concentration was 0.03% (v/v). The chambers were then incubated at 33° C. for 72 hours. The whole experiment was repeated three times for each strain and each concentration. Next, all wells were fixed with 500 μL of cold methanol-formalin (1:1) for 30 minutes and stained with 1 mL of crystal violet (0.1%) for 10 minutes. The biofilm-like colonies were carefully washed three times with 1×PBS and 1 mL of methanol was added to each well to extract a dye, which was measured at 595 nm wavelength.

[2] = tested on: persistent (biofilm) form of Borrelia garinii; assay: as above; format: cell-based, Borrelia garinii CIP103362; details: for efficacy against biofilm compared with combinations (Mix 1 and Mix 2): individual ingredient 0.075 mg/ml; for susceptibility of biofilm: 0.3 mg/ml, 72 hours
Description: as §1, §2, §3, §4

[3] = tested on: active (spirochete) form of Borrelia burgdorferi; assay: bacteriostatic/bactericidal effect on spirochetes, LIVE/DEAD BacLight (SYTO9/IP) fluorescence; format: cell-based, Borrelia burgdorferi B31; details: individual compound 0.3 mg/ml
Description: as §1, with “So far, Borrelia burgdorferi has been found in ticks from North America and Eurasia, while Borrelia garinii only in ticks in Eurasia.” left out
(§5) Evaluation of bacteriostatic and bactericidal effect of individual test compounds and their mixtures on test microorganisms. To determine what compound and/or mixture will have the bacteriostatic and/or bactericidal effect a fluorescence method was used according to Sapi et al. Briefly, 5×10^6 bacterial cells/mL of the homogenous bacterial suspension was inoculated into each sterile 1.8 mL test tightly caps screwed tubes containing 1 mL BSK-H medium, supplemented with the test compound/mixture of interest. […] The tubes were then incubated at 33° C. and viability was monitored at regular intervals for up to 72 hours. […]

[4] = tested on: active (spirochete) form of Borrelia garinii; assay: as above; format: cell-based, Borrelia garinii CIP103362; details: individual compound 0.3 mg/ml
Description: as §1, with “So far, Borrelia burgdorferi has been found in ticks from North America and Eurasia, while Borrelia garinii only in ticks in Eurasia.” left out
as §5

SMILES	efficacy against biofilm compared with combinations (Mix 1 and Mix 2) [1]	efficacy against biofilm compared with combinations (Mix 1 and Mix 2) [2]	susceptibility of biofilm [1]	susceptibility of biofilm [2]	bactericidal effect ([3]; after 6 hours of incubation) [%]	bactericidal effect ([3]; after 24 hours of incubation) [%]	bactericidal effect ([4]; after 6 hours of incubation) [%]	bactericidal effect ([4]; after 24 hours of incubation) [%]
C=C(C)[C@@H]1CC=C(C)C(=O)C1 [R-carvone]	lower efficacy against biofilm than their combinations	lower efficacy against biofilm than their combinations	–	–	–	–	–	–
CC(C)=CCCC(C)=CC=O [citral]	lower efficacy against biofilm than their combinations	lower efficacy against biofilm than their combinations	susceptible	susceptible	–	–	–	–
C=CCc1ccc(O)c(OC)c1 [eugenol]	lower efficacy against biofilm than their combinations	lower efficacy against biofilm than their combinations	susceptible	susceptible	50	100	50	100
CCCCC/C=C\C/C=C\CCCCCCCC(=O)O [linoleic acid]	lower efficacy against biofilm than their combinations	lower efficacy against biofilm than their combinations	–	–	–	–	–	–
